# Assay results published in patent publication US8741888B2, “Sleep aid composition and method” (priority 2010, dated 2014).
# Where two headings read alike, the source gives them in different places.
# Columns and labels:
# [1] = previous range about 170-174 pounds held for ten years
# [2] = system: human; details: cited from earlier work
# [3] = system: human
SMILES,body weight [1],"dosage ultimately required after development of tolerance ([2]; quetiapine, Mariani et al. report)","time after ingestion before the drug enters the system ([2]; quetiapine, background)","side effect at recommended amounts ([2]; quetiapine, Wikipedia, Seroquel prescribing information)","drowsiness after getting up ([3]; quetiapine (Seroquel) alone, 75 mg reduced gradually to 50 mg)","drowsiness after getting up ([3]; quetiapine alone, 25 mg)","time the drug had to be taken before going to bed ([3]; quetiapine alone, 25 mg)","grogginess after additional dose taken during the night ([3]; quetiapine alone, 25 mg plus additional quetiapine)","duration of effectiveness ([2]; zolpidem alone, background)","time of use after which tolerance can develop ([2]; zolpidem alone, background)","period of use after which the drug becomes addictive ([2]; zolpidem alone, Kirkwood, Mariani et al.)","effectiveness in maintaining sleep ([2]; zolpidem, Wikipedia, Rosenberg 2006)",ability to sleep without the drug (dependence) ([3]; after extended use of zolpidem alone),"time asleep before getting up to empty their bladder ([3]; inventor, nightly use)",time kept asleep per dose ([3]; zolpidem (Ambien) alone)
OCCOCCN1CCN(C2=Nc3ccccc3Sc3ccccc32)CC1 [quetiapine],184 pounds,800 mg,about an hour or more,somnolence (drowsiness),"leaving them drowsy, especially in the mornings",did not leave them drowsy after getting up,an hour to an hour and a half,left them a bit groggy during the early part of the day,,,,,,,
Cc1ccc(-c2nc3ccc(C)cn3c2CC(=O)N(C)C)cc1 [zolpidem],,,,,,,,,about four,just a few weeks,about two months or longer,has not adequately demonstrated effectiveness in maintaining sleep,unable to sleep without zolpidem,four or even three,about four
